# Several values for one entry are separate records, joined by “and”; a condition that tells them apart may be missing. Equal values may be shown once. Read-outs that look alike come from different tables or passages of the source.
# Tests used:
# C. elegans DA1316 = assay: C. elegans 3-day liquid viability assay, DA1316 avr-14; avr-15; […]; format: in vivo, Caenorhabditis elegans; conditions: DA1316, nemacol-1 0
# C. elegans unc-17(e245) = conditions: for development average norm L4/As / viability Avg: CB245 unc-17(e245); for nemacol-1 x ivermectin matrix dose-response raw data: unc-17(e245) + 0 uM nemacol, 3 replicate columns
# Haemonchus contortus = Haemonchus contortus L3 Migration Trap Assay (motility, 24 h exposure); conditions: hc weybridge, 24 h; for raw: raw motility readout
# C. elegans = C. elegans 3-day liquid viability assay, Nemacol-1 x Ivermectin matrix, wild type; conditions: for development average norm L4/As / viability Avg / average progress to L4 (development) / average viability (relative to control): N2; for average progress to L4 (development) / average viability (relative to control): Nemacol-1-1 0; for nemacol-1 x ivermectin matrix dose-response raw data: wt (N2) + 0 uM nemacol, 3 replicate columns
# [1] = ivermectin 0.001875 uM (row head 1.875)
# [2] = ivermectin 0.00375 uM (row head 3.75)
# [3] = ivermectin 0.06 uM (row head 60)
# [4] = ivermectin 0.0195312 µM + Nemacol_53 26.4 µM
# [5] = ivermectin 0.0195312 µM + Nemacol_53 16.8 (unit not given)
# [6] = ivermectin 0.078125 µM + Nemacol_53 26.4 µM
# [7] = ivermectin 0.078125 µM + Nemacol_53 16.8 (unit not given)
# [8] = ivermectin 5 µM + Nemacol_53 16.8 (unit not given)
# [9] = ivermectin 0.00046875 uM (Fig. 5AC sheet)
# [10] = ivermectin 0.0009375 uM (Fig. 5AC sheet)
# [11] = ivermectin 0.001875 uM (Fig. 5AC sheet)
# [12] = ivermectin 0.00375 uM (Fig. 5AC sheet)
# [13] = ivermectin 0.03 uM (Fig. 5AC sheet)
# [14] = ivermectin 0.06 uM (Fig. 5AC sheet)
smiles,measurement,setting,value
CC[C@H](C)[C@H]1O[C@]2(CC[C@@H]1C)C[C@@H]1C[C@@H](C/C=C(\C)[C@@H](O[C@H]3C[C@H](OC)[C@@H](O[C@H]4C[C@H](OC)[C@@H](O)[C@H](C)O4)[C@H](C)O3)[C@@H](C)/C=C/C=C3\CO[C@@H]4[C@H](O)C(C)=C[C@@H](C(=O)O1)[C@]34O)O2 [ivermectin],total animals normalized to corresponding controls,C. elegans DA1316; ivermectin 0.0009375 uM,111.56
same,total animals normalized to corresponding controls,C. elegans DA1316; ivermectin 0.001875 uM,102.36
same,total animals normalized to corresponding controls,C. elegans DA1316; ivermectin 0.00375 uM,113.75
same,total animals normalized to corresponding controls,C. elegans DA1316; ivermectin 0.03 uM,108.02
same,total animals normalized to corresponding controls,C. elegans DA1316; ivermectin 0.06 uM,93.85
same,development average norm L4/As,C. elegans unc-17(e245); ivermectin 0.00046875 uM,91.4
same,viability Avg,C. elegans unc-17(e245); ivermectin 0.00046875 uM,0.92
same,development average norm L4/As,C. elegans unc-17(e245); ivermectin 0.0009375 uM,102.0
same,viability Avg,C. elegans unc-17(e245); ivermectin 0.0009375 uM,1.02
same,development average norm L4/As,C. elegans unc-17(e245); ivermectin 0.001875 uM,96.6
same,viability Avg,C. elegans unc-17(e245); ivermectin 0.001875 uM,0.97
same,development average norm L4/As,C. elegans unc-17(e245); ivermectin 0.00375 uM,94.6
same,viability Avg,C. elegans unc-17(e245); ivermectin 0.00375 uM,0.95
same,development average norm L4/As,C. elegans unc-17(e245); ivermectin 0.03 uM,1.1
same,viability Avg,C. elegans unc-17(e245); ivermectin 0.03 uM,0.03
same,development average norm L4/As,C. elegans unc-17(e245); ivermectin 0.06 uM,0.0
same,viability Avg,C. elegans unc-17(e245); ivermectin 0.06 uM,0.00
same,nemacol-1 x ivermectin matrix dose-response raw data,C. elegans unc-17(e245); [1],100.0 and 98.2 and 92.0
same,nemacol-1 x ivermectin matrix dose-response raw data,C. elegans unc-17(e245); [2],94.6 and 102.2 and 87.1
same,nemacol-1 x ivermectin matrix dose-response raw data,C. elegans unc-17(e245); [3],0.0
same,efficacy,Haemonchus contortus; [4],51.6335 and 46.2111 and 62.2283
same,efficacy,Haemonchus contortus; [5],45.9092 and 67.7834 and 50.4898
same,efficacy,Haemonchus contortus; [6],64.6293 and 71.8721 and 59.357
same,efficacy,Haemonchus contortus; [7],51.0321 and 52.0838 and 33.3542
same,efficacy,Haemonchus contortus; ivermectin 0.078125 µM alone,36.1803 and 63.8058 and 55.3013
same,efficacy,Haemonchus contortus; ivermectin 0.3125 µM + Nemacol_53 26.4 µM,79.9766 and 60.2317 and 86.7864
same,efficacy,Haemonchus contortus; ivermectin 0.3125 µM + Nemacol_53 16.8 (unit not given),66.3699 and 69.3635 and 88.9679
same,efficacy,Haemonchus contortus; ivermectin 0.3125 µM alone,59.3102 and 77.8029 and 70.3944
same,efficacy,Haemonchus contortus; ivermectin 1.25 µM + Nemacol_53 26.4 µM,80.8981 and 87.2376 and 93.0175
same,efficacy,Haemonchus contortus; ivermectin 1.25 µM + Nemacol_53 16.8 (unit not given),94.1091 and 79.6798 and 82.4964
same,efficacy,Haemonchus contortus; ivermectin 1.25 µM alone,87.3643 and 74.9707 and 86.5339
same,efficacy,Haemonchus contortus; ivermectin 5 µM + Nemacol_53 26.4 µM,82.4313 and 91.8131 and 94.4761
same,efficacy,Haemonchus contortus; [8],92.0083 and 91.7168 and 89.2099
same,efficacy,Haemonchus contortus; ivermectin 5 µM alone,83.6288 and 93.388 and 88.8663
same,efficacy,Haemonchus contortus; ivermectin 20 µM + Nemacol_53 26.4 µM,86.7838 and 88.1791 and 95.9929
same,efficacy,Haemonchus contortus; ivermectin 20 µM + Nemacol_53 16.8 (unit not given),95.5746 and 77.0116 and 89.754
same,efficacy,Haemonchus contortus; ivermectin 20 µM alone,95.1061 and 89.4651 and 83.7772
same,raw,Haemonchus contortus; ivermectin 0.0012207 µM + Nemacol_53 26.4 µM,51596.5 and 71143.5 and 66277.5
same,raw,Haemonchus contortus; ivermectin 0.0012207 µM + Nemacol_53 16.8 (unit not given),67834.5 and 50419 and 52275.5
same,raw,Haemonchus contortus; ivermectin 0.0012207 µM alone,49240 and 71073.5 and 61317
same,raw,Haemonchus contortus; ivermectin 0.00488281 µM + Nemacol_53 26.4 µM,28751.5 and 44196 and 37912.5
same,raw,Haemonchus contortus; ivermectin 0.00488281 µM alone,43303 and 44672.5 and 57159.5
same,raw,Haemonchus contortus; [4],27870 and 30994.5 and 21765
same,raw,Haemonchus contortus; [5],31168.5 and 18564 and 28529
same,raw,Haemonchus contortus; ivermectin 0.0195312 µM alone,32641 and 25525.5 and 49250.5
same,raw,Haemonchus contortus; [6],20381.5 and 16208 and 23419.5
same,raw,Haemonchus contortus; [7],28216.5 and 27610.5 and 38403
same,raw,Haemonchus contortus; ivermectin 0.078125 µM alone,36774.5 and 20856 and 25756.5
same,raw,Haemonchus contortus; ivermectin 0.3125 µM alone,23446.5 and 12790.5 and 17059.5
same,raw,Haemonchus contortus; ivermectin 1.25 µM alone,7281 and 14422.5 and 7759.5
same,raw,Haemonchus contortus; [8],4605 and 4773 and 6217.5
same,development average norm L4/As,C. elegans; [9],99.0
same,viability Avg,C. elegans; [9],0.99
same,development average norm L4/As,C. elegans; [10],105.0
same,viability Avg,C. elegans; [10],1.05
same,average progress to L4 (development),C. elegans; ivermectin 0.0009375 uM,107.265
same,average viability (relative to control),C. elegans; ivermectin 0.0009375 uM,1.077
same,development average norm L4/As,C. elegans; [11],102.7
same,viability Avg,C. elegans; [11],1.03
same,average progress to L4 (development),C. elegans; ivermectin 0.001875 uM,88.2297
same,average viability (relative to control),C. elegans; ivermectin 0.001875 uM,0.8852
same,development average norm L4/As,C. elegans; [12],101.8
same,viability Avg,C. elegans; [12],1.03
same,average progress to L4 (development),C. elegans; ivermectin 0.00375 uM,85.4056
same,average viability (relative to control),C. elegans; ivermectin 0.00375 uM,0.8507
same,development average norm L4/As,C. elegans; [13],33.1
same,viability Avg,C. elegans; [13],0.89
same,average progress to L4 (development),C. elegans; ivermectin 0.03 uM,25.8319
same,average viability (relative to control),C. elegans; ivermectin 0.03 uM,0.6373
same,development average norm L4/As,C. elegans; [14],0.0
same,viability Avg,C. elegans; [14],0.11
same,average progress to L4 (development),C. elegans; ivermectin 0.06 uM,0
same,average viability (relative to control),C. elegans; ivermectin 0.06 uM,0.09164
same,nemacol-1 x ivermectin matrix dose-response raw data,C. elegans; [1],131.9 and 90.0 and 88.0
same,nemacol-1 x ivermectin matrix dose-response raw data,C. elegans; [2],106.4 and 120.0 and 114.0
same,nemacol-1 x ivermectin matrix dose-response raw data,C. elegans; ivermectin 0.03 uM (row head 30),48.9 and 56.7 and 24.0
same,nemacol-1 x ivermectin matrix dose-response raw data,C. elegans; [3],12.8 and 13.3 and 2.0

# — publication PMC10066365, “Nemacol is a small molecule inhibitor of C. elegans vesicular acetylcholine transporter with anthelmintic potential” (Nature Communications, 2023)
